# Key:
# [1] = tested on: saphenous artery rings; assay: Vasorelaxant effect in vitro (phenylephrine-contracted artery rings); type: cell-based; conditions: rabbit saphenous artery rings, contraction induced by phenylephrine
# Procedure: Rabbits are anesthetized and sacrificed by intravenous injection of thiopental sodium (about 50 mg/kg) and exsanguinated. The saphenous artery is removed and divided into rings 3 mm wide. The rings are mounted singly on in each case a pair of triangular hooks open at the end and made of 0.3 mm-thick special wire (Remanium®). Each ring is placed under an initial tension in 5 ml organ baths with Krebs-Henseleit solution which is at 37° C., is gassed with 95% O2/5% CO2 and has the following composition: NaCl 119 mM; KCl 4.8 mM; CaCl2×2H2O 1 mM; MgSO4×7 H2O 1.4 mM; KH2PO4 1.2 mM; NaHCO3 25 mM; glucose 10 mM; bovine serum albumin 0.001%. The force of contraction is detected with Statham UC2 cells, amplified and digitized via A/D converters (DAS-1802 HC, Keithley Instruments, Munich) and recorded in parallel on chart recorders. Contractions are induced by addition of phenylephrine.
# After several (generally 4) control cycles, the substance to be investigated is added in each further run in increasing dosage, and the height of the contraction achieved under the influence of the test substance is compared with the height of the contraction reached in the last preceding run. The concentration necessary to reduce the contraction reached in the preceding control by 50% is calculated from this (IC50). The standard application volume is 5 μl. The proportion of DMSO in the bath solution corresponds to 0.1%.
# [2] = target: T1, Heme-containing sGC (recombinant soluble guanylate cyclase) (Rattus norvegicus, UniProt P20595); assay: Stimulation of recombinant soluble guanylate cyclase (sGC) in vitro, heme-containing enzyme; type: biochemical
# T1 construct: made in house; host or cells: baculovirus/Sf9 insect cells
# T1 sequence (P20595 1-619): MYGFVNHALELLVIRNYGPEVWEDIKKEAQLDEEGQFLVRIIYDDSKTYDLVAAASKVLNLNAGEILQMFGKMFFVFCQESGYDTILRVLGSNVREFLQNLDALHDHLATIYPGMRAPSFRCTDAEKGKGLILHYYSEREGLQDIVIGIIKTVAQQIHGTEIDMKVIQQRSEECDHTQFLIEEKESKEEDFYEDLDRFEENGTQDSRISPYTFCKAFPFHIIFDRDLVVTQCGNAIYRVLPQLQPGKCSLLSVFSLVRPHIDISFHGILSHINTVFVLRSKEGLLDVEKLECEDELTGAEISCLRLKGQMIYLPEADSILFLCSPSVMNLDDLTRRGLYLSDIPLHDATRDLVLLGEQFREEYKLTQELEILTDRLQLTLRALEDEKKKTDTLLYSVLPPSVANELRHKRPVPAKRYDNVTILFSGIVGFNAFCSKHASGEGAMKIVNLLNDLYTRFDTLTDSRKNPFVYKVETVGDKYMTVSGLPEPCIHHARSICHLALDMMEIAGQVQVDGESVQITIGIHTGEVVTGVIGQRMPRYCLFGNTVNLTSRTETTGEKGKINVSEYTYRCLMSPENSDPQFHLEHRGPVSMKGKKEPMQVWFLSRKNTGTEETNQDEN
# T1 sequence (P19686 1-690 partner): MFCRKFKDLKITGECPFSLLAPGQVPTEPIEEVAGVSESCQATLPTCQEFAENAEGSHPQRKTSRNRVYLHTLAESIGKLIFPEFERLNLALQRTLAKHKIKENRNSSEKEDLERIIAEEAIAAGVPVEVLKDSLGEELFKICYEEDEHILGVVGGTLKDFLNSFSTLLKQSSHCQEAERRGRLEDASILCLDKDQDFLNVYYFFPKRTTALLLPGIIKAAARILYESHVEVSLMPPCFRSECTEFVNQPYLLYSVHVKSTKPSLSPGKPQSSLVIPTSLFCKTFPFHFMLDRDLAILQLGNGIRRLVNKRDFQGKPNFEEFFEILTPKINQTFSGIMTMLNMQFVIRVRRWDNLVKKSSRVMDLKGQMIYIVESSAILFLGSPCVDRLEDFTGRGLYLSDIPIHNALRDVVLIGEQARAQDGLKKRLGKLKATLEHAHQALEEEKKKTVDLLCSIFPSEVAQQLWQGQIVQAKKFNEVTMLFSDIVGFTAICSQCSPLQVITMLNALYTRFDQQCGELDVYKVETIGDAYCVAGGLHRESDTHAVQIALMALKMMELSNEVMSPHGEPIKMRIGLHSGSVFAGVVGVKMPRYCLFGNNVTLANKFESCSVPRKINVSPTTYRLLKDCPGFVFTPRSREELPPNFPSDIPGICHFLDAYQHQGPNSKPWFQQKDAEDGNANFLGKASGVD
# Text: Hoenicka, E. M. Becker, H. Apeler, T. Sirichoke, H. Schroeder, R. Gerzer and J.-P. Stasch, “Purified soluble guanylyl cyclase expressed in a baculovirus/Sf9 system: Stimulation by YC-1, nitric oxide, and carbon oxide”, J. Mol. Med. 77 (1999), 14-23. The heme-free guanylate cyclase is obtained by adding Tween 20 to the sample buffer (0.5% in the final concentration).
# (§1) The activation of sGC by a test substance is reported as n-fold stimulation of the basal activity.
# [3] = target: T2, Heme-free sGC (recombinant soluble guanylate cyclase) (Rattus norvegicus, UniProt P20595); assay: Stimulation of recombinant soluble guanylate cyclase (sGC) in vitro, heme-free enzyme; type: biochemical
# T2 construct: made in house; host or cells: baculovirus/Sf9 insect cells
# T2 sequence (P20595 1-619): T1 sequence (P20595 1-619)
# T2 sequence (P19686 1-690 partner): T1 sequence (P19686 1-690 partner)
# Procedure: Investigations on the stimulation of recombinant soluble guanylate cyclase (sGC) by the compounds according to the invention with and without sodium nitroprusside, and with and without the heme-dependent sGC inhibitor 1H-1,2,4-oxadiazole-(4,3a)-quinoxalin-1-one (ODQ) are carried out by the method described in detail in the following reference: M. Hoenicka, E. M. Becker, H. Apeler, T. Sirichoke, H. Schroeder, R. Gerzer and J.-P. Stasch, “Purified soluble guanylyl cyclase expressed in a baculovirus/Sf9 system: Stimulation by YC-1, nitric oxide, and […]”, J. Mol. Med. 77 (1999), 14-23. The heme-free guanylate cyclase is obtained by adding Tween 20 to the sample buffer (0.5% in the final concentration).
# as §1
# [4] = 0.001 μM Example 13 + 10 μM ODQ
smiles,measurement,setting,value
"O=C(O)CCCCC(/C=C/c1cc(F)ccc1OCc1ccc(-c2ccc(C(F)(F)F)cc2)cc1)Cc1cc(F)c(O)c(F)c1 (single isomer, unassigned) [Example 4, E-6-(3,5-Difluoro-4-hydroxybenzyl)-8-[5-fluoro-2-(4′-trifluoromethylbiphenyl-4-ylmethoxy)phenyl]oct-7-enoic acid]",IC50,[1],960 nM
"O=C(O)CCCCC(/C=C/c1cc(F)ccc1OCc1ccc(-c2ccc(C(F)(F)F)cc2)cc1)Cc1cc(F)c(O)c(F)c1 (single isomer, unassigned) [Example 5, E-6-(3,5-Difluoro-4-hydroxybenzyl)-8-[5-fluoro-2-(4′-trifluoromethylbiphenyl-4-ylmethoxy)phenyl]oct-7-enoic acid]",IC50,[1],300 nM
"O=C(O)CCCCC(/C=C\c1cc(F)ccc1OCc1ccc(-c2ccc(C(F)(F)F)cc2)cc1)Cc1cc(F)c(O)c(F)c1 (single isomer, unassigned) [Example 6, Z-6-(3,5-Difluoro-4-hydroxybenzyl)-8-[5-fluoro-2-(4′-trifluoromethylbiphenyl-4-ylmethoxy)phenyl]oct-7-enoic acid]",IC50,[1]; Oryctolagus cuniculus,2700 nM
"O=C(O)CCCCC(/C=C\c1cc(F)ccc1OCc1ccc(-c2ccc(C(F)(F)F)cc2)cc1)Cc1cc(F)c(O)c(F)c1 (single isomer, unassigned) [Example 7, Z-6-(3,5-Difluoro-4-hydroxybenzyl)-8-[5-fluoro-2-(4′-trifluoromethylbiphenyl-4-ylmethoxy)phenyl]oct-7-enoic acid]",IC50,[1],2600 nM
"O=C(O)CCCCC(/C=C/c1cc(F)ccc1OCc1ccccc1Cl)Cc1cc(F)c(O)c(F)c1 (single isomer, unassigned) [Example 8, E-8-[2-(2-Chlorobenzyloxy)-5-fluorophenyl]-6-(3,5-difluoro-4-hydroxybenzyl)oct-7-enoic acid]",IC50,[1]; Oryctolagus cuniculus,647 nM
"CC(C)(C)c1ccc(COc2ccccc2/C=C/C(CCc2ccc(C(=O)O)cc2)Cc2cc(F)c(O)c(F)c2)cc1 (single isomer, unassigned) [Example 13, E4-[5-[2-(4-tert-Butylbenzyloxy)phenyl]-3-(3,5-difluoro-4-hydroxybenzyl)pent-4-enyl]benzoic acid]",IC50,[1],24.5 nM
same,"Stimulation (n-fold) of heme-containing sGC, Basal",[2]; 0.001 μM Example 13,1.7 n-fold
same,"Stimulation (n-fold) of heme-containing sGC, +0.1 μM DEA/NO",[2]; 0.001 μM Example 13 + 0.1 μM DEA/NO,26.3 n-fold
same,"Stimulation (n-fold) of heme-containing sGC, +10 μM ODQ",[2]; [4],37.5 n-fold
same,"Stimulation (n-fold) of heme-containing sGC, Basal",[2]; 0.01 μM Example 13,6.7 n-fold
same,"Stimulation (n-fold) of heme-containing sGC, +0.1 μM DEA/NO",[2]; 0.01 μM Example 13 + 0.1 μM DEA/NO,31.2 n-fold
same,"Stimulation (n-fold) of heme-containing sGC, +10 μM ODQ",[2]; 0.01 μM Example 13 + 10 μM ODQ,38.8 n-fold
same,"Stimulation (n-fold) of heme-containing sGC, Basal",[2]; 0.1 μM Example 13,19.2 n-fold
same,"Stimulation (n-fold) of heme-containing sGC, +0.1 μM DEA/NO",[2]; 0.1 μM Example 13 + 0.1 μM DEA/NO,40.2 n-fold
same,"Stimulation (n-fold) of heme-containing sGC, +10 μM ODQ",[2]; 0.1 μM Example 13 + 10 μM ODQ,43.8 n-fold
same,"Stimulation (n-fold) of heme-containing sGC, Basal",[2]; 1 μM Example 13,24.2 n-fold
same,"Stimulation (n-fold) of heme-containing sGC, +0.1 μM DEA/NO",[2]; 1 μM Example 13 + 0.1 μM DEA/NO,43.2 n-fold
same,"Stimulation (n-fold) of heme-containing sGC, +10 μM ODQ",[2]; 1 μM Example 13 + 10 μM ODQ,52.2 n-fold
same,"Stimulation (n-fold) of heme-containing sGC, Basal",[2]; 10 μM Example 13,36.2 n-fold
same,"Stimulation (n-fold) of heme-containing sGC, +0.1 μM DEA/NO",[2]; 10 μM Example 13 + 0.1 μM DEA/NO,62.0 n-fold
same,"Stimulation (n-fold) of heme-containing sGC, +10 μM ODQ",[2]; 10 μM Example 13 + 10 μM ODQ,63.7 n-fold
same,Effect of combination with the NO donor DEA/NO on sGC stimulation,[2]; combination with DEA/NO,no synergistic effect
same,Effect of the heme-dependent sGC inhibitor ODQ on the sGC activation,"[2]; with ODQ, effect is in fact increased",not blocked
same,"Stimulation (n-fold) of heme-free sGC, Basal",[3]; 0.001 μM Example 13,4.1 n-fold
same,"Stimulation (n-fold) of heme-free sGC, +10 μM ODQ",[3]; [4],4.0 n-fold
same,"Stimulation (n-fold) of heme-free sGC, Basal",[3]; 0.01 μM Example 13,30.6 n-fold
same,"Stimulation (n-fold) of heme-free sGC, +10 μM ODQ",[3]; 0.01 μM Example 13 + 10 μM ODQ,27.1 n-fold
same,"Stimulation (n-fold) of heme-free sGC, Basal",[3]; 0.1 μM Example 13,94.4 n-fold
same,"Stimulation (n-fold) of heme-free sGC, +10 μM ODQ",[3]; 0.1 μM Example 13 + 10 μM ODQ,88.6 n-fold
same,"Stimulation (n-fold) of heme-free sGC, Basal",[3]; 1 μM Example 13,122.8 n-fold
same,"Stimulation (n-fold) of heme-free sGC, +10 μM ODQ",[3]; 1 μM Example 13 + 10 μM ODQ,118.5 n-fold
same,"Stimulation (n-fold) of heme-free sGC, Basal",[3]; 10 μM Example 13,126.3 n-fold
same,"Stimulation (n-fold) of heme-free sGC, +10 μM ODQ",[3]; 10 μM Example 13 + 10 μM ODQ,118.4 n-fold
"CC(C)(C)c1ccc(COc2ccccc2/C=C/C(CCc2ccc(C(=O)O)cc2)Cc2cc(F)c(O)c(F)c2)cc1 (single isomer, unassigned) [Example 14, E-4-[5-[2-(4-tert-Butylbenzyloxy)phenyl]-3-(3,5-difluoro-4-hydroxybenzyl)pent-4-enyl]benzoic acid]",IC50,[1],1220 nM
"O=C(O)CCCCN(CCc1cc(F)ccc1OCc1ccc(-c2ccc(C(F)(F)F)cc2)cc1)Cc1cc(F)c(O)c(F)c1 [Example 18, 5-{(3,5-Difluoro-4-hydroxybenzyl)-[2-(5-fluoro-2-{[4′-(trifluoromethyl)biphenyl-4-yl]methoxy}phenyl)ethyl]amino}pentanoic acid]",IC50,[1]; Oryctolagus cuniculus,43 nM

# Reference: patent US8173704B2, “Difluorophenol derivatives and their use” (Bayer Pharma Aktiengesellschaft, priority 2005, dated 2012)
